# Experimental data taken from patent US7517884B2 (Kalypsys Inc., priority 1998, dated 2009).
# Legend:
# Assay type in all cases: cell-based, murine and human
# Details in all cases: GAL4-PPAR LBD chimera
# PPAR-alpha = molecular target: T1, PPAR-alpha (UniProt Q07869); test: PPAR-alpha transactivation assay (GAL4 chimera, luciferase reporter) in CV-1 cells
# T1 sequence (Q07869 1-468): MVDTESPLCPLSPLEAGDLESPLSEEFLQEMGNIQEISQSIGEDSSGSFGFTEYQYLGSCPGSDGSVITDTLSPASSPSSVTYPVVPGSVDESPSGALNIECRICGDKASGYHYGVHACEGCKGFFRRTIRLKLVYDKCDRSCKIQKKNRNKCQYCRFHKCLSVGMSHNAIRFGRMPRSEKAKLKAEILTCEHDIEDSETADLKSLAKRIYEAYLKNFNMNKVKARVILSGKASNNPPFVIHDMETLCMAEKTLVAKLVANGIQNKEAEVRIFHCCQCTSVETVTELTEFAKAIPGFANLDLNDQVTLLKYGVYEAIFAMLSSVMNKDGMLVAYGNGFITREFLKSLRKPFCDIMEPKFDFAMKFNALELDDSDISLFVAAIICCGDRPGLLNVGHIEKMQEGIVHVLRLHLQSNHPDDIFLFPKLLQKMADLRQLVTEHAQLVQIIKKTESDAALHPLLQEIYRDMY
# Description: (§1) Compounds may be screened for functional potency in transient transfection assays in CV-1 cells for their ability to activate the PPAR subtypes (transactivation assay). A previously established chimeric receptor system was utilized to allow comparison of the relative transcriptional activity of the receptor subtypes on the same synthetic response element and to prevent endogenous receptor activation from complicating the interpretation of results. See, for example, Lehmann, J. M.; Moore, L. B.; Smith-Oliver, T. A; Wilkinson, W. O.; Willson, T. M.; Kliewer, S. A., An antidiabetic thiazolidinedione is a high affinity ligand for peroxisome proliferator-activated receptor […], J. Biol. Chem., 1995, 270, 12953-6. The ligand binding domains for murine and human PPAR-alpha, PPAR-gamma, and PPAR-delta are each fused to the yeast transcription factor GAL4 DNA binding domain. CV-1 cells were transiently transfected with expression vectors for the respective PPAR chimera along with a reporter construct containing four or five copies of the GAL4 DNA binding site driving expression of luciferase. After 8-16 h, the cells are replated into multi-well assay plates and the media is exchanged to phenol-red free DME medium supplemented with 5% delipidated calf serum. 4 hours after replating, cells were treated with either compounds or 1% DMSO for 20-24 hours. Luciferase activity was then assayed with Britelite (Perkin Elmer) following the manufacturer's protocol and measured with either the Perkin Elmer Viewlux or Molecular Devices Acquest (see, for example, Kliewer, S. A., et. al. Cell 1995, 83, 813-819). Rosiglitazone is used as a positive control in the PPARγ assay. Wy-14643 and GW7647 are used as positive controls in the PPARα assay. GW501516 is used as the positive control in the PPARδ assay.
# (§2) Compounds of Examples 1-141 were assayed to measure their biological activity with respect to their EC50 values for modulating PPAR-alpha, PPAR-gamma, and PPAR-delta as set forth in Table 1.
# PPAR-delta = molecular target: T2, PPAR-delta (UniProt Q03181); test: PPAR-delta transactivation assay (GAL4 chimera, luciferase reporter) in CV-1 cells
# T2 sequence (Q03181 1-441): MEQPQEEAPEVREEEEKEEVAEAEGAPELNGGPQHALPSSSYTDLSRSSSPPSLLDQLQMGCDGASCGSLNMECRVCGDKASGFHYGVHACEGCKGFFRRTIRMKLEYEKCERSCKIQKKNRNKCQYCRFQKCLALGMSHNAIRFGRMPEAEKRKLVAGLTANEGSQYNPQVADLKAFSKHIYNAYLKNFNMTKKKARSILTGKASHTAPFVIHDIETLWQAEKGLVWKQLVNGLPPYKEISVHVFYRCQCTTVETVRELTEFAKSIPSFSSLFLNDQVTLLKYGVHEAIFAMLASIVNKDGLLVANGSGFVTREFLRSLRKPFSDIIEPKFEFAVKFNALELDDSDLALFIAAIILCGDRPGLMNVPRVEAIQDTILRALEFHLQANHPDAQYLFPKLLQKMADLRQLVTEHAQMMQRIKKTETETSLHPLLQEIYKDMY
# Description: as §1, §2
# PPAR-gamma = molecular target: T3, PPAR-gamma (UniProt P37231); test: PPAR-gamma transactivation assay (GAL4 chimera, luciferase reporter) in CV-1 cells
# T3 sequence (P37231 1-505): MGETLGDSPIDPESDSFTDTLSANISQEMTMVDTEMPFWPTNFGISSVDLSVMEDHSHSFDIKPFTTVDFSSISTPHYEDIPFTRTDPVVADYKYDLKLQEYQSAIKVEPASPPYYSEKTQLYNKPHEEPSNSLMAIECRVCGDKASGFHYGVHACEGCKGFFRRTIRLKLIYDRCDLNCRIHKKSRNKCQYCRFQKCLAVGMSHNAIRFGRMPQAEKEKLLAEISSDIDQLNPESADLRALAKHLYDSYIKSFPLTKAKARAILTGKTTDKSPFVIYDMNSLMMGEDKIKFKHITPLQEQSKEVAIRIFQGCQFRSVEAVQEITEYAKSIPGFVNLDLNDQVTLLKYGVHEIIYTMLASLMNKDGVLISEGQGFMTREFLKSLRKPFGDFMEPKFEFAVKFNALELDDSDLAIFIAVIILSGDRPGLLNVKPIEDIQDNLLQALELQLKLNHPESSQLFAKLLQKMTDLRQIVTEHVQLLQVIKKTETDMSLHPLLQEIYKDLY
# Description: as §1, §2
Structure (SMILES),EC50 (PPAR-alpha),EC50 (PPAR-delta),EC50 (PPAR-gamma)
"O=C(O)CC1Cc2cccc(S(=O)(=O)N3CCN(c4ccc(C(F)(F)F)cc4)CC3)c2C1 (stereo not drawn) [Example 2, {4-[4-(4-trifluoromethyl-phenyl)-piperazine-1-sulfonyl]-indan-2-yl}-acetic acid]",> 100 µM,< 5 µM,5 to 100 µM
"O=C(O)CC1Cc2ccc(S(=O)(=O)N3CCN(c4ccc(Cl)c(Cl)c4)CC3)cc2C1 (stereo not drawn) [Example 3, {5-[4-(3,4-dichlorophenyl)-piperazine-1-sulfonyl]-indan-2-yl}-acetic acid]",5 to 100 µM,5 to 100 µM,5 to 100 µM
"O=C(O)CC1Cc2cccc(S(=O)(=O)N3CCN(c4ccc(Cl)c(Cl)c4)CC3)c2C1 (stereo not drawn) [Example 4, {4-[4-(3,4-dichlorophenyl)-piperazine-1-sulfonyl]-indan-2-yl}-acetic acid]",> 100 µM,5 to 100 µM,> 100 µM
"O=C(O)C1Cc2ccc(S(=O)(=O)N3CCN(c4ccc(C(F)(F)F)cc4)CC3)cc2C1 (stereo not drawn) [Example 5, 5-[4-(4-trifluoromethyl-phenyl)-piperazine-1-sulfonyl]-indan-2-carboxylic acid]",5 to 100 µM,< 5 µM,5 to 100 µM
"O=C(O)C1Cc2cccc(S(=O)(=O)N3CCN(c4ccc(C(F)(F)F)cc4)CC3)c2C1 (stereo not drawn) [Example 6, 4-[4-(4-trifluoromethyl-phenyl)-piperazine-1-sulfonyl]-indan-2-carboxylic acid]",> 100 µM,< 5 µM,< 5 µM
"O=C(O)C1Cc2ccc(S(=O)(=O)N3CCN(c4ccc(Cl)c(Cl)c4)CC3)cc2C1 (stereo not drawn) [Example 7, 5-[4-(3,4-dichlorophenyl)-piperazine-1-sulfonyl]-indan-2-carboxylic acid]",5 to 100 µM,< 5 µM,5 to 100 µM
"O=C(O)C1Cc2cccc(S(=O)(=O)N3CCN(c4ccc(Cl)c(Cl)c4)CC3)c2C1 (stereo not drawn) [Example 8, 4-[4-(3,4-dichlorophenyl)-piperazine-1-sulfonyl]-indan-2-carboxylic acid]",5 to 100 µM,< 5 µM,< 5 µM
O=C(O)C1Cc2ccc(S(=O)(=O)N3CCN(c4ccc(C(F)(F)F)cn4)CC3)cc2C1 (stereo not drawn) [Example 9],5 to 100 µM,< 5 µM,5 to 100 µM
"CC1(C(=O)O)Cc2ccc(S(=O)(=O)N3CCN(c4ccc(C(F)(F)F)cn4)CC3)cc2C1 (stereo not drawn) [Example 13, 2-methyl-5-[4-(5-trifluoromethyl-pyridin-2-yl)-piperazine-1-sulfonyl]-indan-2-carboxylic acid]",5 to 100 µM,< 5 µM,5 to 100 µM
"CC1(C(=O)O)Cc2cccc(S(=O)(=O)N3CCN(c4ccc(C(F)(F)F)cn4)CC3)c2C1 (stereo not drawn) [Example 14, 2-methyl-4-[4-(5-trifluoromethyl-pyridin-2-yl)-piperazine-1-sulfonyl]-indan-2-carboxylic acid]",> 100 µM,5 to 100 µM,5 to 100 µM
"O=C(O)C1Cc2ccc(S(=O)(=O)N3CCN(c4cccc(C(F)(F)F)c4)CC3)cc2C1 (stereo not drawn) [Example 15, 5-[4-(3-trifluoromethyl-phenyl)-piperazine-1-sulfonyl]-indan-2-carboxylic acid]",5 to 100 µM,5 to 100 µM,5 to 100 µM
"O=C(O)C1Cc2cccc(S(=O)(=O)N3CCN(c4cccc(C(F)(F)F)c4)CC3)c2C1 (stereo not drawn) [Example 16, 4-[4-(3-trifluoromethyl-phenyl)-piperazine-1-sulfonyl]-indan-2-carboxylic acid]",5 to 100 µM,< 5 µM,5 to 100 µM
"O=C(O)C1Cc2ccc(S(=O)(=O)N3CC=C(c4ccc(C(F)(F)F)cc4)CC3)cc2C1 (stereo not drawn) [Example 17, 5-[4-(4-trifluoromethyl-phenyl)-3,6-dihydro-2H-pyridine-1-sulfonyl]-indan-2-carboxylic acid]",5 to 100 µM,5 to 100 µM,5 to 100 µM
